According to patent US6495538B2, “Zinc ionophores as therapeutic agents” (Zinc Therapeutics, Canada Inc., priority 1999, dated 2002):

Tests used:
[1] = tested on: cultured HUVEC, isolated cardiac myocytes, and cultured cerebellar neurons; assay: Zinc ionophore screening with Fura-2 loaded cells; format: cell-based, human, rabbit, mouse; settings: for zinc ionophore activity: 1 μM zinc-complexed holo-ionophore, slope of Fura-2 fluorescence ratio 340/380 nm
Experimental: Human umbilical vein endothelial cells (HUVEC) were purchased from Clonetics (San Diego, Calif.) and passages 2-4 were used for these studies. Cells were cultured on flame-sterilized glass coverslips in Endothelial Basal Medium (Clonetics) supplemented with 10 ng/ml human recombinant epidermal growth factor, 1.0 ug/ml hydrocortisone, 50 ug/ml gentamicin, 50 ng/ml amphotetericin B, 12 ug/ml bovine brain extract and 2% v/v fetal bovine serum (all from Clonetics), in a humidified chamber at 37° C. and 5% CO2. To maintain cell populations, proliferating HUVEC were passaged at 80-90% confluency.
Cardiac myocytes were isolated from the ventricular septum of adult rabbit hearts, following collagenase digestion, in a manner similar to that described previously (Turan, B. et al., (1997) Am. J. Physiol. 272:H2095-H2106). The modification consisted of introducing low concentrations of CaCl2 during the perfusion with collagenase and the dispersion of the myocytes. Hearts were perfused for about 2 min by gravity under a hydrostatic pressure of 1 m, with a nominally Ca^2+-free solution containing (in mM): NaCl, 145; KCl, 5; MgSO4, 1.2; Na2HPO4, 1.8; HEPES, 5; glucose, 10; pH adjusted to 7.4 with NaOH. Forty ml of this perfusate were then supplemented with collagenase (1 mg/ml) and perfusion was continued with recirculation. […] The flow rate was then adjusted to 15 ml/min and 50 μM CaCl2 was added to the collagenase solution. Perfusion with this solution was continued for another 15 to 18 min, followed by a 2 min washout of the enzyme with fresh perfusate containing 100 μM CaCl2 and no collagenase. The hearts were then removed from the apparatus and the ventricular septum isolated and minced. Dissociation of the cells was obtained by gentle agitation of the minced tissue in 50 ml of the same perfusing solution. Following filtration through a 200 μm nylon mesh, the cells were allowed to settle and the supernatant was replaced with a solution containing 2 mM CaCl2. Cells were kept at 37° C. in this pre-oxygenated solution and were studied within 8 hours after isolation, cellular viability was ensured by regularly replacing the incubation solution.
Primary cultures of mouse cerebellar granule neurons were obtained from dissociated cerebella of postnatal day 8 or 9 mice according to the following protocol (Cregan et al., (1999) J. Neurosci. 19:7860-7869, incorporated herein by reference). Brains were removed and placed into separate dishes containing solution A (124 mM NaCl, 5.37 mM KCl, 1 mM NaH2 PO4 , 1.2 mM MgSO4 , 14.5 mM D-(1)-glucose, 25 mM HEPES, 3 mg/ml BSA, pH 7.4) in which the cerebella were dissected, meninges removed, and tissue sliced into small pieces. The tissue was briefly centrifuged and transferred to solution A containing 0.25 mg/ml trypsin, then incubated at 37° C. for 18 min. After the addition of 0.082 mg/ml trypsin inhibitor (Boehringer Mannheim, Indianapolis, IN) and 0.25 mg/ml DNase I (Boehringer Mannheim), the tissue was incubated at 25° C. for 2 min. After a brief centrifugation, the resulting pellet was gently titrated in solution A yielding suspension that was further incubated for 10 min at 25° C. in solution A containing 2.7 mM MgSO4 and 0.03 mM CaCl2. After a final centrifugation the pellet was resuspended in EMEM media (Sigma, St. Louis, Mo.) containing 10% dialyzed FBS (Sigma), 25 mM KCl, 2 mM glutamine (Life Technologies BRL, Gaithersburg, Md.), 25 mM glucose, and 0.1 mg/ml gentamycin (Sigma) and filtered through a cell strainer (size 70 μm; Falcon). Cells were plated on glass coverslips coated with poly-D-lysine (Sigma) in Nunc four-well dishes at a density of 1.5×10^6 cells per milliliter of medium. Cytosine-β-arabinoside (10 μM; Sigma) was added 24 hr after plating.
In order to ascertain that the transported ion was indeed Zn^2+, and not some other divalent cation contaminant, the test compounds were first complexed with zinc.

PTZ-induced seizures = assay: Subcutaneous PTZ (pentylenetetrazole) test; format: in vivo, rat; settings: 62.5 nmol/kg i.p.
Source text: The ability of a test compound to inhibit PTZ-induced clonic and tonic convulsions is currently regarded as predictive of efficacy against “absence” seizures and/or myoclonic seizures (Suzdak, Jansen, 1995, Epilepsia, 36(6):612-626). The pharmacological profile of the PTZ test varies depending on the endpoint selected: PTZ can produce myoclonic jerks, repeated clonic seizures of forelimbs and hindlimbs with and without loss of righting reflex, and loss of righting reflex followed by tonic extension of the forelimbs and hind limbs. To have the full picture of the PTZ-induced seizures and of the effects of zinc ionophores, and to make the model more discriminative (White at al., supra) the behavioral reaction of each rat was monitored for a period of 2 hours which is much longer than the usual time period in conventional screening experiments.
PTZ (120 mg/kg) was administered subcutaneously to male Wistar rats (300-450 g). Zinc ionophores were injected i.p. in one bolus, 30 min before PTZ at a dose of 62.5 nmol/kg and a total volume of 0.25-0.4 ml.

PC12 cells = assay: Differentiated PC12 cells, H2O2-induced apoptosis; format: cell-based, rat; settings: concentrations equivalent to those of zinc-pyrithione; not shown
Source text: Control cells were pretreated with the carrier DMSO alone.

[2] = tested on: Human umbilical vein endothelial cells (HUVEC)
Experimental: Human umbilical vein endothelial cells (HUVEC) were purchased from Clonetics (San Diego, Calif.) and used from passages 2-4. Cells were cultured on gelatin-coated culture dishes in Endothelial Basal Medium (Clonetics) supplemented with 10 ng/ml human recombinant epidermal growth factor, 1.0 ug/ml hydrocortisone, 50 ug/ml gentamicin, 50 ng/ml amphotetericin B, 12 ug/ml bovine brain extract and 2% v/v fetal bovine serum, in a humidified chamber at 37° C. and 5% CO2. To maintain cell populations, proliferating HUVEC were passaged at 80-90% confluency.
HUVEC were grown to confluency, and then given an additional 24 hours to achieve quiescence prior to experimental treatment. The following treatments were performed:
The cells were washed twice with 37° C. D-PBS and then irradiated in fresh media. Irradiated cells received a dose of 1000 Rads of gamma-irradiation from a ^137Cesium source (Atomic Energy of Canada). The cells were then incubated for 2 hours (cytosolic and nuclear protein extraction) or 8 hours (Hoechst staining and DNA electrophoresis).
Cells were grown on round, gelatin coated 12 mm glass coverslips, and following treatment, were fixed with 0.5 ml of 1% glutaraldehyde in PBS for 10 minutes at room temperature (RT). […] The nuclear morphology of the cells was then visualized under a Zeiss Axiophot fluorescence microscope.

With `S=C(S)N1CCCC1` [Pyrrolidinedithiocarbamate] as the molecule, how does the zinc ionophore activity [1] read?
Its zinc ionophore activity is “Pyrrolidinedithiocarbamate ✓✓”.

For `Cc1c(C)c2c(c(C)c1O)CC[C@@](C)(CCC[C@H](C)CCC[C@H](C)CCCC(C)C)O2` [Vitamin E (alpha-tocopherol), alpha-tocopherol], which zinc ionophore activity [1] is on record?
The zinc ionophore activity was “Vitamin E (alpha-tocopherol) ✓”.

Which zinc ionophore activity [1] does the source give for `Oc1cccc2cccnc12` [8-Hydroxyquinoline] here?
Its zinc ionophore activity is 8-Hydroxyquinoline, ✓.

`CC1=C(/C=C/C(C)=C/C=C/C(C)=C/CO)C(C)(C)CCC1` [Vitamin A (all-trans-retinol), all-trans-retinol] was tested. Which zinc ionophore activity [1] did it give?
The zinc ionophore activity was “Vitamin A (all-trans-retinol) ✓”.

With `Oc1c(I)cc(I)c2cccnc12.[Zn]` [ZDIHQ, zinc 5,7-diiodo-8-hydroxyquinoline] as the molecule, how does the zinc ionophore activity [1] read?
The zinc ionophore activity was 5,7-Diiodo-8-hydroxyaquinoline ✓✓.

What about the “ionophore activity compared between cell types” value ([1]; HUVEC, cardiac myocytes, cerebellar neurons) of the same molecule?
Its value is “comparable in all three cell types tested”.

What about the “latency of clonus with loss of righting reflex” value (PTZ-induced seizures; M ± S.E.M.) of the same molecule?
The value was 21.2 ± 2.7 min.

And the “latency of clonus without loss of righting reflex” value (PTZ-induced seizures; M ± S.E.M.)?
Its value is 15.6 ± 1.7 min.

What about the “latency of tonic seizure” value (PTZ-induced seizures; M ± S.E.M.) of the same molecule?
The value was 28.4 ± 4.1 min.

What about the “increase of survival time (mean time to death) of non-survivors” value (PTZ-induced seizures; rats which died within 2 h) of the same molecule?
The value was 1.6 fold.

`COc1ccc2c(c1)c(CC(=O)O)c(C)n2C(=O)c1ccc(Cl)cc1` [Indomethacin] was tested. Which zinc ionophore activity [1] did it give?
Its zinc ionophore activity is “Indomethacin ✓”.

`[Zn+2]` [Zn^2+] was tested. Which “apoptosis of H2O2-treated cells” value (PC12 cells) did it give?
The value was “did not block apoptosis”.

How did the “apoptosis in irradiated HUVEC” value ([2]; 1000 Rads gamma-irradiation, 8 hours) turn out when `[Na+].[O-][n+]1ccccc1[S-]` [sodium-pyrithione] was run?
The value was “not effective”.

And the “apoptosis caused in control cultures” value ([2]; non-irradiated HUVEC)?
Its value is “No apoptosis”.

For `CCN(CC)C(=S)SSC(=S)N(CC)CC` [Disulfiram], which zinc ionophore activity [1] is on record?
Its zinc ionophore activity is “Disulfiram ✓✓”.
